Like-named read-outs stand apart in the source and are kept apart here.
System: L. donovani IRFP axenic amastigotes
Experiment: Primary single-concentration screening on axenic amastigotes, growth inhibition at 72 h
Format: cell-based, Leishmania donovani
Settings: for inhibition at 1 µM / inhibition at 10 µM: Leishmania donovani
[1] = 1 µM, experiment 1, 72 h, axenic amastigotes
[2] = 1 µM, experiment 2, 72 h, axenic amastigotes
[3] = 10 µM, experiment 1, 72 h, axenic amastigotes
[4] = 10 µM, experiment 2, 72 h, axenic amastigotes
[5] = 1 µM, experiment 1, 72 h, axenic amastigotes, read-out: Growth Inhibition (%) at 72h, 1 µM_Exp1
[6] = 1 µM, experiment 2, 72 h, axenic amastigotes, read-out: Growth Inhibition (%) at 72h, 1 µM_Exp2
[7] = 10 µM, experiment 1, 72 h, axenic amastigotes, read-out: Growth Inhibition (%) at 72h, 10 µM_Exp1
[8] = 10 µM, experiment 2, 72 h, axenic amastigotes, read-out: Growth Inhibition (%) at 72h, 10 µM_Exp2

| SMILES | Growth Inhibition (%) at 72h, 1 µM_Exp1 [1] [%] | Growth Inhibition (%) at 72h, 1 µM_Exp2 [2] [%] | Growth Inhibition (%) at 72h, 10 µM_Exp1 [3] [%] | Growth Inhibition (%) at 72h, 10 µM_Exp2 [4] [%] | inhibition at 1 µM [5] [%] | inhibition at 1 µM [6] [%] | inhibition at 10 µM [7] [%] | inhibition at 10 µM [8] [%] | also measured |
| --- | --- | --- | --- | --- | --- | --- | --- | --- | --- |
| COc1ccc2cc3[n+](cc2c1OC)CCc1cc2c(cc1-3)OCO2.[Cl-] [Berberine (chloride)] | 16.68 | 6.56 | 99.29 | 97.39 | – | – | – | – | – |
| COc1ccc2cc3[n+](cc2c1OC)CCc1cc2c(cc1-3)OCO2.O=S(=O)([O-])O [Berberine (sulfate)] | 19.57 | -24.39 | 70.74 | 94.59 | – | – | – | – | – |
| CC[C@@]1(O)C(=O)OCc2c1cc1n(c2=O)Cc2cc3ccccc3nc2-1 [Camptothecin] | – | – | – | – | 66.4 | 89.3 | 91 | 95.9 | – |
| CC[C@H]1CN2CCc3cc(OC)c(OC)cc3[C@@H]2C[C@@H]1C[C@H]1NCCc2cc(O)c(OC)cc21.Cl.Cl [Cephaeline (dihydrochloride)] | -15.97 | -74.54 | 96.96 | 92.99 | – | – | – | – | – |
| O=S(=O)([O-])O.c1c2c(cc3c1OCO3)-c1cc3ccc4c(c3c[n+]1CC2)OCO4 [Coptisine (Sulfate)] | -9.12 | -56.10 | 71.50 | 83.90 | – | – | – | – | – |
| [Cl-].c1c2c(cc3c1OCO3)-c1cc3ccc4c(c3c[n+]1CC2)OCO4 [Coptisine (chloride)] | 29.53 | 16.08 | 84.96 | 96.73 | – | – | – | – | – |
| COc1cc2c(cc1OC)[C@H]1[C@@H](C)c3ccc(OC)c(OC)c3CN1CC2 [Corydaline] | -15.75 | 2.30 | 79.13 | 87.39 | – | – | – | – | – |
| COc1cc2c(cc1O)C1Cc3ccc(OC)c(O)c3C[N+]1(C)CC2.[Cl-] (stereo not shown) [Cyclanoline (chloride)] | -48.98 | 13.86 | 77.56 | 17.25 | – | – | – | – | – |
| CC(=O)C1=C(O)[C@@H]2[C@H]3c4c[nH]c5cccc(c45)C[C@H]3C(C)(C)N2C1=O [Cyclopiazonic acid] | – | – | – | – | 20.8 | 19.9 | 100 | 100 | – |
| COc1cc2c(cc1OC)-c1c(C)c3ccc(OC)c(OC)c3c[n+]1CC2.[Cl-] [Dehydrocorydaline (chloride)] | 13.00 | 31.86 | 95.47 | 88.17 | – | – | – | – | – |
| COc1cc2c(cc1OC)-c1c(C)c3ccc(OC)c(OC)c3c[n+]1CC2.[OH-] [Dehydrocorydaline (hydroxyl)] | 10.19 | -0.13 | 92.43 | 77.86 | – | – | – | – | – |
| COc1cc2c(cc1OC)-c1c(C)c3ccc(OC)c(OC)c3c[n+]1CC2.O=[N+]([O-])[O-] [Dehydrocorydaline (nitrate)] | 27.42 | -14.19 | 82.98 | 66.56 | – | – | – | – | – |
| COc1ccc2cc3[n+](cc2c1OC)CCc1cc(O)c(O)cc1-3.[Cl-] [Demethyleneberberine (chloride)] | -4.24 | 8.25 | 43.2 | 71.18 | – | – | – | – | – |
| COc1cc(CNC(=O)CCCCCCC(C)C)ccc1O [Dihydrocapsaicin] | – | – | – | – | -4.08 | 35.3 | 92 | 71.1 | – |
| CCCCCCCCCCCCCc1cc(=O)c2ccccc2n1C [Dihydroevocarpine] | -21.58 | 19.18 | 97.61 | 83.00 | – | – | – | – | – |
| Cc1c2ccncc2c(C)c2c1[nH]c1ccccc12.Cl [Ellipticine (hydrochloride)] | 36.30 | -10.32 | 98.68 | 97.67 | – | – | – | – | – |

| SMILES | Growth Inhibition (%) at 72h, 1 µM_Exp1 [1] [%] | Growth Inhibition (%) at 72h, 1 µM_Exp2 [2] [%] | Growth Inhibition (%) at 72h, 10 µM_Exp1 [3] [%] | Growth Inhibition (%) at 72h, 10 µM_Exp2 [4] [%] | inhibition at 1 µM [5] [%] | inhibition at 1 µM [6] [%] | inhibition at 10 µM [7] [%] | inhibition at 10 µM [8] [%] | also measured |
| --- | --- | --- | --- | --- | --- | --- | --- | --- | --- |
| Cl.Cl.O=C(C[C@H]1NCCC[C@@H]1O)Cn1cnc2ccccc2c1=O [Febrifugine (dihydrochloride)] | 74.39 | 25.76 | 97.63 | 97.12 | – | – | – | – | – |
| O=C(C[C@H]1NCCC[C@@H]1O)Cn1cnc2ccccc2c1=O [Febrifugine] | – | – | – | – | 15.4 | -25.3 | 99.8 | 98.2 | – |
| Br.O=C(CC1NCCCC1O)Cn1cnc2cc(Br)c(Cl)cc2c1=O (stereo not shown) [Halofuginone (hydrobromide)] | 99.34 | 83.65 | 100.16 | 98.51 | – | – | – | – | – |
| O=C(CC1NCCCC1O)Cn1cnc2cc(Br)c(Cl)cc2c1=O (stereo not shown) [Halofuginone] | – | – | – | – | 93.7 | 90.9 | 97.7 | 98.2 | – |
| COC(=O)C[C@](O)(CCC(C)(C)O)C(=O)O[C@@H]1C(OC)=C[C@]23CCCN2CCc2cc4c(cc2[C@H]13)OCO4 [Harringtonine] | – | – | – | – | -25.3 | 3.29 | 92.5 | 92.2 | – |
| COC(=O)C[C@](O)(CCCC(C)(C)O)C(=O)O[C@@H]1C(OC)=C[C@]23CCCN2CCc2cc4c(cc2[C@H]13)OCO4 [Homoharringtonine] | – | – | – | – | 4.68 | -119 | 89.9 | 91.5 | – |
| O=C(O)CNCC(=O)O [Iminodiacetic acid] | – | – | – | – | -16.6 | -73 | -16.9 | 79.9 | – |
| O=C(O)CCCc1c[nH]c2ccccc12 [Indole-3-butyric acid] | – | – | – | – | -6.27 | 14.8 | 70.2 | 84 | – |
| CN1[C@@H](CC(=O)c2ccccc2)CCC[C@H]1CC(=O)c1ccccc1 [Lobelanine] | -73.70 | 10.47 | 75.56 | 20.66 | – | – | – | – | – |
| O=C1C=CC(=O)N1 [Maleimide] | – | – | – | – | 101 | 101 | 101 | 101 | – |
| CCCCC/C=C\C/C=C\CCCCCCCC(=O)NCc1ccccc1 [N-Benzyllinoleamide] | 23.06 | -24.6 | 99.77 | 99.86 | – | – | – | – | – |
| CC/C=C\C/C=C\C/C=C\CCCCCCCC(=O)NCc1ccccc1 [N-Benzyllinolenamide] | -37.93 | -43.83 | 99.95 | 100.85 | – | – | – | – | – |
| O=C1N[C@@H]2C(=C[C@H](O)[C@@H](O)[C@H]2O)c2cc3c(c(O)c21)OCO3 [Narciclasine] | -12.26 | -86.55 | 84.56 | 93.45 | – | – | – | – | – |
| CCCCCCCCC(=O)NCc1ccc(O)c(OC)c1 [Nonivamide] | – | – | – | – | 10.9 | -30.7 | 101 | 93.3 | – |
| COc1cc(CNC(=O)CCCCCC(C)C)ccc1O [Nordihydrocapsaicin] | – | – | – | – | – | – | – | – | Growth Inhibition (%) at 72h, 1 µM_Exp1: 1.91%; Growth Inhibition (%) at 72h, 1 µM_Exp2: -21.65%; Growth Inhibition (%) at 72h, 10 µM_Exp1: 90.15%; Growth Inhibition (%) at 72h, 10 µM_Exp2: 70.24% |

— article PMC12608155, “Discovery of Potential Antileishmanial Compounds Through Phenotypic Screening of an Alkaloid Library” (Molecules, 2025)
